Measurements taken from PubChem BioAssay AID1745844 (Carcinogenic Potency Database (CPDB), 2022).
The source made the active and inactive calls. No rule for the calls is given here.

Test system: rodent lifetime carcinogenesis bioassay, tumor incidence TD50
Test: carcinogenic potency in animals, long-term in vivo studies, CPDB compilation (AID 1745844)

CC(C)(CCCOc1ccc(OCCCC(C)(C)C(=O)O)c(-c2ccccc2)c1)C(=O)O
TD50 (mouse, strain B6C3F1, females, in feed, site: liver, lesion: hepatocellular adenoma, dosed 104 weeks, study length 104 weeks): 90.6 mg/kg/day | TD50 (mouse, strain B6C3F1, females, in feed, site: liver, lesion: hepatocellular carcinoma, dosed 104 weeks, study length 104 weeks): 402 mg/kg/day | TD50 (mouse, strain B6C3F1, females, in feed, site: liver, lesion: several types, types named in the paper, dosed 104 weeks, study length 104 weeks): 72.3 mg/kg/day | TD50 (mouse, strain B6C3F1, males, in feed, site: liver, lesion: hepatocellular adenoma, dosed 104 weeks, study length 104 weeks): 107 mg/kg/day | TD50 (mouse, strain B6C3F1, males, in feed, site: liver, lesion: hepatocellular carcinoma, dosed 104 weeks, study length 104 weeks): 167 mg/kg/day | TD50 (mouse, strain B6C3F1, males, in feed, site: liver, lesion: several types, types named in the paper, dosed 104 weeks, study length 104 weeks): 45 mg/kg/day

CC(=O)Oc1ccccc1C(=O)O
carcinogen call (mouse, strain C57BL/6, females, in feed, site: liver, lesion: one or several types, types not named, dosed 77 weeks, study length 77 weeks): negative (inactive) | carcinogen call (mouse, strain C57BL/6, males, in feed, site: liver, lesion: one or several types, types not named, dosed 77 weeks, study length 77 weeks): negative (inactive) | carcinogen call (rat, strain Fischer 344, males, in feed, site: colon, lesion: one or several types, types not named, dosed 56 weeks, study length 56 weeks): negative (inactive) | TD50 (rat, strain Fischer 344, males, in feed, site: urinary bladder, lesion: papilloma, dosed 68 weeks, study length 68 weeks): 1670 mg/kg/day | carcinogen call (rat, strain Wistar, males, in feed, site: liver, lesion: one or several types, types not named, dosed 52 weeks, study length 52 weeks): negative (inactive) | carcinogen call (rat, strain albino, both sexes, by gavage, site: forestomach, lesion: one or several types, types not named, dosed 78 weeks, study length 78 weeks): negative (inactive) | carcinogen call (rat, strain albino, both sexes, by gavage, site: stomach, glandular, lesion: one or several types, types not named, dosed 78 weeks, study length 78 weeks): negative (inactive)

c1ccc2n[nH]nc2c1
TD50 (mouse, strain B6C3F1, females, in feed, site: any site (literature study), lesion: several types, types named in the paper, dosed 104 weeks, study length 106 weeks): 18900 mg/kg/day | TD50 (mouse, strain B6C3F1, females, in feed, site: lung, lesion: alveolar/bronchiolar adenoma + alveolar/bronchiolar carcinoma, dosed 104 weeks, study length 106 weeks): 3890 mg/kg/day | TD50 (mouse, strain B6C3F1, females, in feed, site: lung, lesion: alveolar/bronchiolar carcinoma, dosed 104 weeks, study length 106 weeks): 4390 mg/kg/day | carcinogen call (mouse, strain B6C3F1, males, in feed, site: any site (literature study), lesion: several types, types named in the paper, dosed 104 weeks, study length 106 weeks): negative (inactive) | TD50 (rat, strain Fischer 344, females, in feed, site: brain, lesion: glioma, NOS, dosed 78 weeks, study length 105 weeks): 20300 mg/kg/day | TD50 (rat, strain Fischer 344, females, in feed, site: liver, lesion: hepatocellular adenoma + hepatocellular carcinoma + neoplastic nodule, dosed 78 weeks, study length 105 weeks): 10100 mg/kg/day | carcinogen call (rat, strain Fischer 344, males, in feed, site: brain, lesion: glioma, NOS + oligodendroglioma, dosed 78 weeks, study length 104 weeks): a | TD50 (rat, strain Fischer 344, males, in feed, site: liver, lesion: hepatocellular adenoma + hepatocellular carcinoma + neoplastic nodule, dosed 78 weeks, study length 104 weeks): 2720 mg/kg/day | TD50 (rat, strain Fischer 344, males, in feed, site: liver, lesion: neoplastic nodule, dosed 78 weeks, study length 104 weeks): 2720 mg/kg/day

NNc1nc(-c2ccc([N+](=O)[O-])cc2)cs1
TD50 (mouse, strain Swiss, females, in feed, site: all sites, lesion: lymphocytic leukemia, dosed 46 weeks, study length 66 weeks): 10.6 mg/kg/day | TD50 (mouse, strain Swiss, females, in feed, site: any site (literature study), lesion: several types, types named in the paper, dosed 46 weeks, study length 66 weeks): 8.33 mg/kg/day | TD50 (mouse, strain Swiss, females, in feed, site: lung, lesion: alveolar-cell carcinoma, dosed 46 weeks, study length 66 weeks): 25 mg/kg/day | TD50 (rat, strain Sprague-Dawley, females, in feed, site: any site (literature study), lesion: several types, types named in the paper, dosed 46 weeks, study length 75 weeks): 0.743 mg/kg/day | TD50 (rat, strain Sprague-Dawley, females, in feed, site: forestomach, lesion: squamous-cell papilloma, dosed 46 weeks, study length 75 weeks): 9 mg/kg/day | TD50 (rat, strain Sprague-Dawley, females, in feed, site: mammary gland, lesion: adenocarcinoma, dosed 45 weeks, study length 52 weeks): 9.51 mg/kg/day | TD50 (rat, strain Sprague-Dawley, females, in feed, site: mammary gland, lesion: adenocarcinoma, dosed 46 weeks, study length 75 weeks): 3.78 mg/kg/day | TD50 (rat, strain Sprague-Dawley, females, in feed, site: mammary gland, lesion: several types, types named in the paper, dosed 45 weeks, study length 52 weeks): 8.66 mg/kg/day | TD50 (rat, strain Sprague-Dawley, females, in feed, site: mammary gland, lesion: several types, types named in the paper, dosed 46 weeks, study length 75 weeks): 1.97 mg/kg/day | TD50 (rat, strain Sprague-Dawley, females, in feed, site: salivary gland, lesion: adenocarcinoma, dosed 45 weeks, study length 52 weeks): 21.7 mg/kg/day

O=[As]O
carcinogen call (mouse, strain Charles River CD1, both sexes, in drinking water, site: any site (literature study), lesion: benign tumor, dosed 104 weeks, study length 104 weeks): negative (inactive) | carcinogen call (mouse, strain Charles River CD1, both sexes, in drinking water, site: any site (literature study), lesion: malignant tumor, dosed 104 weeks, study length 104 weeks): negative (inactive) | carcinogen call (mouse, strain Charles River CD1, both sexes, in drinking water, site: any site (literature study), lesion: several types, types named in the paper, dosed 104 weeks, study length 104 weeks): negative (inactive) | carcinogen call (mouse, strain Charles River CD1, both sexes, in drinking water, site: liver, lesion: several types, types named in the paper, dosed 104 weeks, study length 104 weeks): negative (inactive) | carcinogen call (mouse, strain Charles River CD1, both sexes, in drinking water, site: lung, lesion: several types, types named in the paper, dosed 104 weeks, study length 104 weeks): negative (inactive) | carcinogen call (rat, strain Long-Evans BLU:(LE), both sexes, in drinking water, site: any site (literature study), lesion: malignant tumor, dosed 167 weeks, study length 167 weeks): negative (inactive) | carcinogen call (rat, strain Long-Evans BLU:(LE), both sexes, in drinking water, site: any site (literature study), lesion: one or several types, types not named, dosed 167 weeks, study length 167 weeks): negative (inactive) | TD50 (rat, strain Long-Evans BLU:(LE), both sexes, in drinking water, site: liver, lesion: one or several types, types not named, dosed 167 weeks, study length 167 weeks): 10.6 mg/kg/day (inactive) | TD50 (rat, strain Osborne-Mendel, both sexes, in feed, site: any site (literature study), lesion: malignant tumor, dosed 104 weeks, study length 104 weeks): 626 mg/kg/day (inactive) | carcinogen call (rat, strain Osborne-Mendel, both sexes, in feed, site: any site (literature study), lesion: several types, types named in the paper, dosed 104 weeks, study length 104 weeks): negative (inactive)

Clc1cccc(-c2cc(Cl)cc(Cl)c2)c1
TD50 (rat, strain Sprague-Dawley, females, in feed, site: liver, lesion: hepatocellular adenoma, dosed 104 weeks, study length 104 weeks): 59.3 mg/kg/day | TD50 (rat, strain Sprague-Dawley, females, in feed, site: liver, lesion: hepatocellular carcinoma, dosed 104 weeks, study length 104 weeks): 598 mg/kg/day | TD50 (rat, strain Sprague-Dawley, females, in feed, site: liver, lesion: several types, types named in the paper, dosed 104 weeks, study length 104 weeks): 53.9 mg/kg/day | TD50 (rat, strain Sprague-Dawley, males, in feed, site: liver, lesion: several types, types named in the paper, dosed 104 weeks, study length 104 weeks): 872 mg/kg/day

FCCl
TD50 (rat, strain Alpk:APfSD, females, by gavage, site: stomach, lesion: carcinoma, dosed 52 weeks, study length 108 weeks): 2710 mg/kg/day | TD50 (rat, strain Alpk:APfSD, females, by gavage, site: stomach, lesion: fibrosarcoma, dosed 52 weeks, study length 108 weeks): 119 mg/kg/day | TD50 (rat, strain Alpk:APfSD, females, by gavage, site: stomach, lesion: sarcoma, dosed 52 weeks, study length 108 weeks): 2710 mg/kg/day | TD50 (rat, strain Alpk:APfSD, females, by gavage, site: stomach, lesion: several types, types named in the paper, dosed 52 weeks, study length 108 weeks): 26.5 mg/kg/day | TD50 (rat, strain Alpk:APfSD, females, by gavage, site: stomach, lesion: squamous-cell carcinoma, dosed 52 weeks, study length 108 weeks): 69.4 mg/kg/day | TD50 (rat, strain Alpk:APfSD, males, by gavage, site: stomach, lesion: fibrosarcoma, dosed 52 weeks, study length 100 weeks): 88.1 mg/kg/day | TD50 (rat, strain Alpk:APfSD, males, by gavage, site: stomach, lesion: several types, types named in the paper, dosed 52 weeks, study length 100 weeks): 28.5 mg/kg/day | TD50 (rat, strain Alpk:APfSD, males, by gavage, site: stomach, lesion: squamous-cell carcinoma, dosed 52 weeks, study length 100 weeks): 46.9 mg/kg/day

Nc1nc(/C=C/c2ccc([N+](=O)[O-])o2)no1
TD50 (mouse, strain Charles River CD1, females, in feed, site: forestomach, lesion: squamous-cell carcinoma, dosed 31 weeks, study length 75 weeks): 105 mg/kg/day | TD50 (mouse, strain Charles River CD1, females, in feed, site: forestomach, lesion: squamous-cell papilloma, dosed 31 weeks, study length 75 weeks): 1150 mg/kg/day | TD50 (mouse, strain Charles River CD1, females, in feed, site: lung, lesion: adenoma, dosed 31 weeks, study length 75 weeks): 1010 mg/kg/day | carcinogen call (mouse, strain Charles River CD1, females, in feed, site: reticuloendothelium, lesion: several types, types named in the paper, dosed 31 weeks, study length 75 weeks): positive | TD50 (mouse, strain Charles River CD1, females, in feed, site: thymus gland, lesion: lymphoma, dosed 31 weeks, study length 75 weeks): 262 mg/kg/day | TD50 (mouse, strain Charles River CD1, males, in feed, site: any site (literature study), lesion: several types, types named in the paper, dosed 38 weeks, study length 75 weeks): 29.2 mg/kg/day | TD50 (mouse, strain Charles River CD1, males, in feed, site: forestomach, lesion: squamous-cell carcinoma, dosed 38 weeks, study length 75 weeks): 130 mg/kg/day | TD50 (mouse, strain Charles River CD1, males, in feed, site: forestomach, lesion: squamous-cell papilloma, dosed 38 weeks, study length 75 weeks): 514 mg/kg/day | TD50 (mouse, strain Charles River CD1, males, in feed, site: reticuloendothelium, lesion: several types, types named in the paper, dosed 38 weeks, study length 75 weeks): 492 mg/kg/day | TD50 (mouse, strain Charles River CD1, males, in feed, site: thymus gland, lesion: lymphoma, dosed 38 weeks, study length 75 weeks): 121 mg/kg/day
